Experimental data published in publication PMC7377474, “Preclinical characterization of CPL302-253, a selective inhibitor of PI3Kδ, as the candidate for the inhalatory treatment and prevention of Asthma” (PLoS ONE, 2020).

Legend:
Assay in all cases: SafetyScan44
Type in all cases: cell-based
HTR1A = target: T1, HTR1A (Homo sapiens, UniProt P08908); settings: 10 μM
T1 construct: purchased DiscoverX (Eurofins) SafetyScan44
Experimental: (§1) SafetyScan44 assay was performed by DiscoverX according to service provider’s protocol.

MAOA = target: T2, MAOA (Homo sapiens, UniProt P21397); settings: 10 μM; Inhibitor mode
T2 construct: purchased DiscoverX (Eurofins) SafetyScan44
Experimental: as §1

HTR2A = target: T3, HTR2A (Homo sapiens, UniProt P28223); settings: 10 μM
T3 construct: purchased DiscoverX (Eurofins) SafetyScan44
Experimental: as §1

PDE3A = target: T4, PDE3A (Homo sapiens, UniProt Q14432); settings: 10 μM; Inhibitor mode
T4 construct: purchased DiscoverX (Eurofins) SafetyScan44
Experimental: as §1

OPRK1 = target: T5, OPRK1 (Homo sapiens, UniProt P41145); settings: 10 μM
T5 construct: purchased DiscoverX (Eurofins) SafetyScan44
Experimental: as §1

COX1 = target: T6, COX1 (Homo sapiens, UniProt P23219); settings: 10 μM; Inhibitor mode
T6 construct: purchased DiscoverX (Eurofins) SafetyScan44
Experimental: as §1

HTR1B = target: T7, HTR1B (Homo sapiens, UniProt P28222); settings: 10 μM
T7 construct: purchased DiscoverX (Eurofins) SafetyScan44
Experimental: as §1

PDE4D2 = target: T8, PDE4D2 (Homo sapiens, UniProt Q08499); settings: 10 μM; Inhibitor mode
T8 construct: purchased DiscoverX (Eurofins) SafetyScan44
Experimental: as §1

ROCK1 = target: T9, ROCK1 (Homo sapiens, UniProt Q13464); settings: 10 μM; Inhibitor mode
T9 construct: purchased DiscoverX (Eurofins) SafetyScan44
Experimental: as §1

ADRA1A = target: T10, ADRA1A (Homo sapiens, UniProt P35348); settings: 10 μM
T10 construct: purchased DiscoverX (Eurofins) SafetyScan44
Experimental: as §1

DAT = target: T11, DAT (Homo sapiens, UniProt Q01959); settings: 10 μM; Blocker mode
T11 construct: purchased DiscoverX (Eurofins) SafetyScan44
Experimental: as §1

DRD1 = target: T12, DRD1 (Homo sapiens, UniProt P21728); settings: 10 μM
T12 construct: purchased DiscoverX (Eurofins) SafetyScan44
Experimental: as §1

CNR2 = target: T13, CNR2 (Homo sapiens, UniProt P34972); settings: 10 μM
T13 construct: purchased DiscoverX (Eurofins) SafetyScan44
Experimental: as §1

CHRM3 = target: T14, CHRM3 (Homo sapiens, UniProt P20309); settings: 10 μM
T14 construct: purchased DiscoverX (Eurofins) SafetyScan44
Experimental: as §1

AVPR1A = target: T15, AVPR1A (Homo sapiens, UniProt P37288); settings: 10 μM
T15 construct: purchased DiscoverX (Eurofins) SafetyScan44
Experimental: as §1

ADORA2A = target: T16, ADORA2A (Homo sapiens, UniProt P29274); settings: 10 μM
T16 construct: purchased DiscoverX (Eurofins) SafetyScan44
Experimental: as §1

EDNRA = target: T17, EDNRA (Homo sapiens, UniProt P25101); settings: 10 μM
T17 construct: purchased DiscoverX (Eurofins) SafetyScan44
Experimental: as §1

NET = target: T18, NET (Homo sapiens, UniProt P23975); settings: 10 μM; Blocker mode
T18 construct: purchased DiscoverX (Eurofins) SafetyScan44
Experimental: as §1

COX2 = target: T19, COX2 (Homo sapiens, UniProt P35354); settings: 10 μM; Inhibitor mode
T19 construct: purchased DiscoverX (Eurofins) SafetyScan44
Experimental: as §1

GR = target: T20, GR (Homo sapiens, UniProt P04150); settings: 10 μM
T20 construct: purchased DiscoverX (Eurofins) SafetyScan44
Experimental: as §1

CHRM1 = target: T21, CHRM1 (Homo sapiens, UniProt P11229); settings: 10 μM
T21 construct: purchased DiscoverX (Eurofins) SafetyScan44
Experimental: as §1

HTR3A = target: T22, HTR3A (Homo sapiens, UniProt P46098); settings: 10 μM
T22 construct: purchased DiscoverX (Eurofins) SafetyScan44
Experimental: as §1

SERT = target: T23, SERT (Homo sapiens, UniProt P31645); settings: 10 μM; Blocker mode
T23 construct: purchased DiscoverX (Eurofins) SafetyScan44
Experimental: as §1

AChE = target: T24, AChE (Homo sapiens, UniProt P22303); settings: 10 μM; Inhibitor mode
T24 construct: purchased DiscoverX (Eurofins) SafetyScan44
Experimental: as §1

OPRD1 = target: T25, OPRD1 (Homo sapiens, UniProt P41143); settings: 10 μM
T25 construct: purchased DiscoverX (Eurofins) SafetyScan44
Experimental: as §1

CAV1.2 = target: T26, CAV1.2 (Homo sapiens, UniProt Q13936); settings: 10 μM; Blocker mode
T26 construct: purchased DiscoverX (Eurofins) SafetyScan44
Experimental: as §1

NAV1.5 = target: T27, NAV1.5 (Homo sapiens, UniProt Q14524); settings: 10 μM; Blocker mode
T27 construct: purchased DiscoverX (Eurofins) SafetyScan44
Experimental: as §1

HRH1 = target: T28, HRH1 (Homo sapiens, UniProt P35367); settings: 10 μM
T28 construct: purchased DiscoverX (Eurofins) SafetyScan44
Experimental: as §1

CCKAR = target: T29, CCKAR (Homo sapiens, UniProt P32238); settings: 10 μM
T29 construct: purchased DiscoverX (Eurofins) SafetyScan44
Experimental: as §1

OPRM1 = target: T30, OPRM1 (Homo sapiens, UniProt P35372); settings: 10 μM
T30 construct: purchased DiscoverX (Eurofins) SafetyScan44
Experimental: as §1

CHRM2 = target: T31, CHRM2 (Homo sapiens, UniProt P08172); settings: 10 μM
T31 construct: purchased DiscoverX (Eurofins) SafetyScan44
Experimental: as §1

LCK = target: T32, LCK (Homo sapiens, UniProt P06239); settings: 10 μM; Inhibitor mode
T32 construct: purchased DiscoverX (Eurofins) SafetyScan44
Experimental: as §1

ADRB1 = target: T33, ADRB1 (Homo sapiens, UniProt P08588); settings: 10 μM
T33 construct: purchased DiscoverX (Eurofins) SafetyScan44
Experimental: as §1

CNR1 = target: T34, CNR1 (Homo sapiens, UniProt P21554); settings: 10 μM
T34 construct: purchased DiscoverX (Eurofins) SafetyScan44
Experimental: as §1

INSR = target: T35, INSR (Homo sapiens, UniProt P06213); settings: 10 μM; Inhibitor mode
T35 construct: purchased DiscoverX (Eurofins) SafetyScan44
Experimental: as §1

DRD2S = target: T36, DRD2S (Homo sapiens, UniProt P14416); settings: 10 μM
T36 construct: purchased DiscoverX (Eurofins) SafetyScan44
Experimental: as §1

VEGFR2 = target: T37, VEGFR2 (Homo sapiens, UniProt P35968); settings: 10 μM; Inhibitor mode
T37 construct: purchased DiscoverX (Eurofins) SafetyScan44
Experimental: as §1

ADRA2A = target: T38, ADRA2A (Homo sapiens, UniProt P08913); settings: 10 μM
T38 construct: purchased DiscoverX (Eurofins) SafetyScan44
Experimental: as §1

T22 sequence (P46098 24-478): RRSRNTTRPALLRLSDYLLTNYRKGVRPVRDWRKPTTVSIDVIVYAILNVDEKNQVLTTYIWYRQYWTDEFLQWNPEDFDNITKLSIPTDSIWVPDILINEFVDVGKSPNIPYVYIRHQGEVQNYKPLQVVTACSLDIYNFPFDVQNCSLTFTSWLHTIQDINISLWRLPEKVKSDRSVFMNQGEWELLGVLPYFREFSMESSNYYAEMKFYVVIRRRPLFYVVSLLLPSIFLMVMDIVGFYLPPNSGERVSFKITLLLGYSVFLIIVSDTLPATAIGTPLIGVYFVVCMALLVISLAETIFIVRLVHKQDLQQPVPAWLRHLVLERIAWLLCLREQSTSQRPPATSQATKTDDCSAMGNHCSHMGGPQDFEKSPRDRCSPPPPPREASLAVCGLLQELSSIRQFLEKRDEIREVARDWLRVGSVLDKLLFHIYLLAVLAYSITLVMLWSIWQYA
T1 sequence (P08908 whole entry): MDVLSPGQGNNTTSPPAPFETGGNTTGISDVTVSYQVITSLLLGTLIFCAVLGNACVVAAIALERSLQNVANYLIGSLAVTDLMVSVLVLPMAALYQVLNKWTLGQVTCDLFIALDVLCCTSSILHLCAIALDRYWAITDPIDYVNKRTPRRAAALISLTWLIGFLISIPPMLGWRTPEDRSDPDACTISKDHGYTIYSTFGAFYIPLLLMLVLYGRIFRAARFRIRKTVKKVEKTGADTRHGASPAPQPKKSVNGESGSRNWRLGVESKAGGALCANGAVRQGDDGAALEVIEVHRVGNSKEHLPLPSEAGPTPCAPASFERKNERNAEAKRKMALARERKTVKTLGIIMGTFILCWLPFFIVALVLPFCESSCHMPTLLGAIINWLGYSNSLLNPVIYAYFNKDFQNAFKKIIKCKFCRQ
T31 sequence (P08172 whole entry): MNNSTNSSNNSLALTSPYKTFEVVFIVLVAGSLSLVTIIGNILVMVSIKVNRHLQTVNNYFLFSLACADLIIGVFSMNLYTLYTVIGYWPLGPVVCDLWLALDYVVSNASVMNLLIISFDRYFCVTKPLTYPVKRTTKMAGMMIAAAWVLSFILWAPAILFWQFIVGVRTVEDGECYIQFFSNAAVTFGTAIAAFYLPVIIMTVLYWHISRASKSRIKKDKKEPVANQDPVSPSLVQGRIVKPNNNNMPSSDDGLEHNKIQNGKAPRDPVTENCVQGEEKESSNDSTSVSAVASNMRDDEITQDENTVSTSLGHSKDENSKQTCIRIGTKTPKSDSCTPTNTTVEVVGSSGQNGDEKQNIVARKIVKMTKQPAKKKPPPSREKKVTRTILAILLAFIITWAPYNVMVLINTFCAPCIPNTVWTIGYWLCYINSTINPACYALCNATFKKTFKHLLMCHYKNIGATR
T12 sequence (P21728 whole entry): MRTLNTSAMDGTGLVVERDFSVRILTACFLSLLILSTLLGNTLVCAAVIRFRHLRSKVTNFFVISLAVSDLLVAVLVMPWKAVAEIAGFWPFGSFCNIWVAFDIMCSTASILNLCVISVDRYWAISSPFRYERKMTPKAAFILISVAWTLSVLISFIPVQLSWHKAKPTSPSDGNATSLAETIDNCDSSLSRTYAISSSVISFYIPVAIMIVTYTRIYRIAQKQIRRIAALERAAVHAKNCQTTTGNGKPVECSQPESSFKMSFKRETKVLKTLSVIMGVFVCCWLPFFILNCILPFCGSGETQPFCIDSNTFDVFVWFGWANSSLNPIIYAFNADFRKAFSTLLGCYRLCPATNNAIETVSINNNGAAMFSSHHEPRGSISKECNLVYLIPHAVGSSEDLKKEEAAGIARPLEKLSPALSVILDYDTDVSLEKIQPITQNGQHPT
T17 sequence (P25101 21-427): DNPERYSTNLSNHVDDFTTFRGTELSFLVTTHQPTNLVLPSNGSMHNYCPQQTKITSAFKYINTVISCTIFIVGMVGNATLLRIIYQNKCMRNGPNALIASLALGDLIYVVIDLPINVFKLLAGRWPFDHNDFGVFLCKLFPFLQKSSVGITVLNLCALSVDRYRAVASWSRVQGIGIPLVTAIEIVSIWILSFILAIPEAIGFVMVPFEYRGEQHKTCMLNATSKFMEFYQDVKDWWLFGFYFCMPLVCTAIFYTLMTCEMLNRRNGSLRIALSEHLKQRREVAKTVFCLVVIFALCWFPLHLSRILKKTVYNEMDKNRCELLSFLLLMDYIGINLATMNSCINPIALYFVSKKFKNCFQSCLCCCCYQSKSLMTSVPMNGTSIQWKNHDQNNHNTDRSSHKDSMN
T15 sequence (P37288 whole entry): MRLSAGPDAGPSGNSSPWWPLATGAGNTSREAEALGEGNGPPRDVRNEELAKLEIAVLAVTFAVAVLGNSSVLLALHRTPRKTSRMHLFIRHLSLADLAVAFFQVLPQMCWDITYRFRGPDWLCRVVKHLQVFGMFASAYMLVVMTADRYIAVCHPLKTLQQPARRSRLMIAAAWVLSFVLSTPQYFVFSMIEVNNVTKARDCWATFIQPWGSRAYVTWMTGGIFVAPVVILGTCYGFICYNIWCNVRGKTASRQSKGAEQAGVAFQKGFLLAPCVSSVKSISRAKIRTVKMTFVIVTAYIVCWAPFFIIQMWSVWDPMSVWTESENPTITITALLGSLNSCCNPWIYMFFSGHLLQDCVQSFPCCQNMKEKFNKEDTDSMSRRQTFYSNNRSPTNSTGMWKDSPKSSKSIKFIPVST
T10 sequence (P35348 whole entry): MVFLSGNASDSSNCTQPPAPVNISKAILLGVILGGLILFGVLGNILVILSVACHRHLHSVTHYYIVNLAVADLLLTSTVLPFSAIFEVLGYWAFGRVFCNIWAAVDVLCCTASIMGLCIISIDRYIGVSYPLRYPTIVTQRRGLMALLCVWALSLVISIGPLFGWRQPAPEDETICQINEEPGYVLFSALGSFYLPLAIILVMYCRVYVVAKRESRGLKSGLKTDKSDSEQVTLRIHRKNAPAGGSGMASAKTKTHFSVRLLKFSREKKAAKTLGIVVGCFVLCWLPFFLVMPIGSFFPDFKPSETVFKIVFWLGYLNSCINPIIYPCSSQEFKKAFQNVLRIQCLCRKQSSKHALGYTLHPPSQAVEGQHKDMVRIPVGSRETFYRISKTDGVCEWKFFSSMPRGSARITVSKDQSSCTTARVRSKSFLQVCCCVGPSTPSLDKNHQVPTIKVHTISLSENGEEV
T13 sequence (P34972 whole entry): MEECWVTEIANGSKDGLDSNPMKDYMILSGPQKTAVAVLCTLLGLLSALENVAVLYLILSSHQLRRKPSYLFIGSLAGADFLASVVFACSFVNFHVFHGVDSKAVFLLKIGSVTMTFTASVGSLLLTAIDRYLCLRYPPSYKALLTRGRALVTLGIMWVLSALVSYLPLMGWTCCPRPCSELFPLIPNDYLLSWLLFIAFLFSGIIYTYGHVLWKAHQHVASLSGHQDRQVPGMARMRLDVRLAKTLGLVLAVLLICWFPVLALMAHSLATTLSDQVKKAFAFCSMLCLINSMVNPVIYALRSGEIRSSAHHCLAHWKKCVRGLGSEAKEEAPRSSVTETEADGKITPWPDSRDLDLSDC
T20 sequence (P04150 whole entry): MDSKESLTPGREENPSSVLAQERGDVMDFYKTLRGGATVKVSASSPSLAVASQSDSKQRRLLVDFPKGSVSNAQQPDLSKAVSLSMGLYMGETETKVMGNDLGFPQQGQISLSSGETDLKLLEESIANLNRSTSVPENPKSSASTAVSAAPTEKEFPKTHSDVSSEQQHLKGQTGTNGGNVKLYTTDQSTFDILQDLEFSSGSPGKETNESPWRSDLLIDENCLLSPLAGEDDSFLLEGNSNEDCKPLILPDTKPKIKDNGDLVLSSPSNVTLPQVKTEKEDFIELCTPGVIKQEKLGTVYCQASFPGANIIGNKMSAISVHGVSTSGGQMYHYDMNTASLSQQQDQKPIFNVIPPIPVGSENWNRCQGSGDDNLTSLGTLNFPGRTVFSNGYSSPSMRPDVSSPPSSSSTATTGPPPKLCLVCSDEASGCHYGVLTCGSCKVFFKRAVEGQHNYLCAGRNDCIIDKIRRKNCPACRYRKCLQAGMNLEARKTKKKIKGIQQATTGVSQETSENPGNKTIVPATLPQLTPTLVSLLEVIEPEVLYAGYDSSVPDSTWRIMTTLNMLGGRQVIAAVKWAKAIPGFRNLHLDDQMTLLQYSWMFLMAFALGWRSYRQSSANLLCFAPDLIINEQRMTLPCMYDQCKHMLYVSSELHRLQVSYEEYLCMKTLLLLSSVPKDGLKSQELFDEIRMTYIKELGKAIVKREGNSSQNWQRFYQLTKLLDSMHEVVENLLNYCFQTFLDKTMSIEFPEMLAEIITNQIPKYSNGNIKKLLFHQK
T34 sequence (P21554 whole entry): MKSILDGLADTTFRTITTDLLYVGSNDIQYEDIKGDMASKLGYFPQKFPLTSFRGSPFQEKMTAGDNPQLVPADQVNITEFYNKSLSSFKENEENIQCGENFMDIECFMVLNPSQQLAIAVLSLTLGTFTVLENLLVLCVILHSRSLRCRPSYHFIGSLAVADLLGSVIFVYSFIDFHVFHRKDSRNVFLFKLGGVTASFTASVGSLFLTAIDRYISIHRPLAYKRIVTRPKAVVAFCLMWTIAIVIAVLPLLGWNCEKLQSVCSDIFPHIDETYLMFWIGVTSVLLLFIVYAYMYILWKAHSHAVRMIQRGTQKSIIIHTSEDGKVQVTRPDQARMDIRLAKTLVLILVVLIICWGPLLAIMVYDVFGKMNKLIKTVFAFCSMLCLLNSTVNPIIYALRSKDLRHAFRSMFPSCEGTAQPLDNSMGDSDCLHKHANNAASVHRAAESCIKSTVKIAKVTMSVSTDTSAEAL

## CC(C)(C)N1CCN(Cc2cc3nc(-c4cncc5[nH]ccc45)cc(N4CCOCC4)n3n2)CC1 [CPL302-253]
HTR1A; Agonist mode
  % Response HTR1A Agonist: 5.6%
HTR1A; Antagonist mode
  % Response HTR1A Antagonist: -4.8%
MAOA
  % Response MAOA Inhibitor: 8.5%
HTR2A; Agonist mode
  % Response HTR2A Agonist: -1.5%
HTR2A; Antagonist mode
  % Response HTR2A Antagonist: 11.5%
PDE3A
  % Response PDE3A Inhibitor: -8.1%
OPRK1; Agonist mode
  % Response OPRK1 Agonist: -11.0%
OPRK1; Antagonist mode
  % Response OPRK1 Antagonist: 0.3%
COX1
  % Response COX1 Inhibitor: 4.7%
HTR1B; Agonist mode
  % Response HTR1B Agonist: 8.0%
HTR1B; Antagonist mode
  % Response HTR1B Antagonist: 0.1%
PDE4D2
  % Response PDE4D2 Inhibitor: 2.0%
ROCK1
  % Response ROCK1 Inhibitor: 10.3%
ADRA1A; Agonist mode
  % Response ADRA1A Agonist: -22.5%
ADRA1A; Antagonist mode
  % Response ADRA1A Antagonist: -2.8%
DAT
  % Response DAT Blocker: 56.1%
DRD1; Agonist mode
  % Response DRD1 Agonist: 1.1%
DRD1; Antagonist mode
  % Response DRD1 Antagonist: 9.3%
CNR2; Agonist mode
  % Response CNR2 Agonist: 16.4%
CNR2; Antagonist mode
  % Response CNR2 Antagonist: 1.1%
CHRM3; Agonist mode
  % Response CHRM3 Agonist: 1.2%
CHRM3; Antagonist mode
  % Response CHRM3 Antagonist: 12.6%
AVPR1A; Agonist mode
  % Response AVPR1A Agonist: -3.2%
AVPR1A; Antagonist mode
  % Response AVPR1A Antagonist: -5.2%
ADORA2A; Agonist mode
  % Response ADORA2A Agonist: -0.8%
ADORA2A; Antagonist mode
  % Response ADORA2A Antagonist: 11.7%
EDNRA; Agonist mode
  % Response EDNRA Agonist: -3.3%
EDNRA; Antagonist mode
  % Response EDNRA Antagonist: -4.8%
NET
  % Response NET Blocker: 8.5%
COX2
  % Response COX2 Inhibitor: 11.9%
GR; Agonist mode
  % Response GR Agonist: 0.0%
GR; Antagonist mode
  % Response GR Antagonist: -5.6%
CHRM1; Agonist mode
  % Response CHRM1 Agonist: 1.2%
CHRM1; Antagonist mode
  % Response CHRM1 Antagonist: 48.1%
HTR3A; Blocker mode
  % Response HTR3A Blocker: 19.5%
HTR3A; Opener mode
  % Response HTR3A Opener: -0.8%
SERT
  % Response SERT Blocker: 21.5%
AChE
  % Response AChE Inhibitor: 27.8%
OPRD1; Agonist mode
  % Response OPRD1 Agonist: -6.4%
OPRD1; Antagonist mode
  % Response OPRD1 Antagonist: 0.4%
CAV1.2
  % Response CAV1.2 Blocker: -1.1%
NAV1.5
  % Response NAV1.5 Blocker: 9.7%
HRH1; Agonist mode
  % Response HRH1 Agonist: -0.2%
HRH1; Antagonist mode
  % Response HRH1 Antagonist: 7.2%
CCKAR; Agonist mode
  % Response CCKAR Agonist: -2.8%
CCKAR; Antagonist mode
  % Response CCKAR Antagonist: -2.4%
OPRM1; Agonist mode
  % Response OPRM1 Agonist: -9.0%
OPRM1; Antagonist mode
  % Response OPRM1 Antagonist: 0.2%
CHRM2; Agonist mode
  % Response CHRM2 Agonist: 8.2%
CHRM2; Antagonist mode
  % Response CHRM2 Antagonist: 35.2%
LCK
  % Response LCK Inhibitor: 16.3%
ADRB1; Agonist mode
  % Response ADRB1 Agonist: 0.5%
ADRB1; Antagonist mode
  % Response ADRB1 Antagonist: 26.6%
CNR1; Agonist mode
  % Response CNR1 Agonist: -9.2%
CNR1; Antagonist mode
  % Response CNR1 Antagonist: -1.3%
INSR
  % Response INSR Inhibitor: -6.5%
DRD2S; Agonist mode
  % Response DRD2S Agonist: -4.5%
DRD2S; Antagonist mode
  % Response DRD2S Antagonist: -1.1%
VEGFR2
  % Response VEGFR2 Inhibitor: 30.7%
ADRA2A; Agonist mode
  % Response ADRA2A Agonist: 0.4%
ADRA2A; Antagonist mode
  % Response ADRA2A Antagonist: -0.7%
